Holding throughout (format): in vitro ADME
The nature of series [1]: plasma protein binding, Rapid Equilibrium Dialysis (RED), rat. The conditions noted are these: 4h at 37°C. The procedure: (§1) Plasma from Seralab was employed in the assay and was carried out by employing Rapid Equilibrium Dialysis (RED) from Thermo Scientific.
(§2) The compounds were dissolved at 5 µM in plasma and added to the corresponding insert of the RED device. Dialysis buffer was added to the corresponding insert of the RED device. Plate was incubated for 4h at 37°C.
(§3) After the incubation period 50 µL aliquots of each chamber were transferred to empty vials. 50 µL of dialysis buffer were added to the plasma samples and 50 µL of plasma were added to the buffer samples. 300 µL of acetonitrile were added to all the samples and centrifuged at 4000 rpm 100 µL aliquots of the supernatants were transferred to a LC analysis plate. Samples were analyzed in a UPLC/MS/MS. Stationary phase: Acquity UPLC® BEHC18 1,7 µm (2.1 mm x 50 mm) (Waters). Gradient: A (H2O + 0.1% Formic acid); B (ACN + 0.1% Formic acid); Flow: 0.6mL/min Table 8: UPLC gradient / Protein binding assay
(§4) The chromatographic equipment employed was an ACQUITY UPLC / Xevo TQD System. Compound concentrations were calculated from the MS peak areas. Table 9: Plasma protein binding of the compounds of formula (I) in rat, mice, dogs and humans / (*) low recovery

Series [2] has as its system Plasma protein. Described as above. The note with it: 5 µM, 4h at 37°C. The method, then:
as §1, §2, §3, §4

Series [3] in a line: plasma protein binding, Rapid Equilibrium Dialysis (RED), human. The conditions noted are these: 4h at 37°C. The method, then:
as §1, §2, §3, §4
(Equilibrium dialysis compares concentrations on both sides of a semipermeable membrane.)

In series [4] the test system is Plasma protein. The series is described as above. The note with it: 5 µM, 4h at 37°C. The procedure: as §1, §2, §3, §4
The nature of series [5]: plasma protein binding, Rapid Equilibrium Dialysis (RED), mouse. The note with it: 4h at 37°C, (*) low recovery for (If). The procedure: as §1, §2, §3, §4
Series [6] relates to Plasma protein. Described as above. The conditions noted are these: 5 µM, 4h at 37°C, (*) low recovery for (If). The method, then:
as §1, §2, §3, §4

Series [7] is described as follows: plasma protein binding, Rapid Equilibrium Dialysis (RED), dog. The conditions noted are these: 4h at 37°C. The method, then: as §1, §2, §3, §4
The test system of series [8] is Plasma protein. The series is described as above. The conditions noted are these: 5 µM, 4h at 37°C. The procedure:
as §1, §2, §3, §4

A word on the fraction unbound: it is the share of the substance not bound to proteins or other matrix. A higher fraction unbound goes with weak binding. With `O=C1NC(=O)C(c2ccccc2)(c2ccccc2)N1` [Phenytoin, reference compound], the fraction unbound at 4 h, 5 µM in series [1] was 0.138; in series [3], 0.178; in series [5], 0.179; in series [7], 0.189. Moreover, the Unbound fraction came to 13.76% with Plasma protein [2], 17.77% in the series with Plasma protein [4], 17.94% in the series on Plasma protein [6] and 18.94% in the series with Plasma protein [8].

The record behind these values is patent EP4420661B1, “SMALL MOLECULES TARGETING GLYCOPROTEIN VI AS ANTIPLATELET AGENTS FOR USE IN THE PREVENTION AND/OR TREATMENT OF THROMBOSIS AND ASSOCIATED PATHOLOGIES” (Universidade de Santiago de Compostela, priority 2023, dated 2024).
